# Test results: patent US20230201221A1, “USE OF TERPENOIDS IN THE TREATMENT OR PREVENTION OF FIBROTIC DISEASES” (ARJIL BIOTECH HOLDING COMPANY LIMITED, priority 2020, published 2023)
# Legend:
# Format in all cases: in vivo
# C57BL/6 mice [1] = experiment: Cisplatin-induced renal injury in mice: serum CRE and BUN; settings: extracts at 1000 mg/kg; compared to cisplatin-stimulated group, p<0.001
# Procedure: Determination of biochemical parameters Serum creatinine and serum urea are assessed using colorimetric kits according to manufacturer's instructions. Kits of the former markers are purchased from (HUMAN Diagnostics Worldwide, Magdeburg, Germany) with a chemical analyzer (Roche Diagnostics, Cobas Mira Plus, Rotkreuz, Switzerland).
# (§1) Seven-to-eight-week-old male C57BL/6 mice are obtained from the BioLASCO Taiwan Co., Ltd. (Taipei, Taiwan). The animals are housed in Plexiglas cages at a constant temperature of 22±1° C. and a relative humidity of 55±5% on a 12 h dark-light cycle for at least 2 weeks before the experiment. Animals are provided food and water ad libitum. All experimental procedures are performed according to the guidelines of the Institutional Animal Ethics Committee, and the protocol is approved by the Committee for the Purpose of Control and Supervision of Experiments on Animals.
# Renal fibrosis is induced via multiple injections of low-dose cisplatin. Intraperitoneal injections of cisplatin (5 mg/kg/injection; P4394, Sigma-Aldrich, St Louis, Mo.) are performed at 0, 1, and 3 weeks, for a total of 3 injections. Mice are sacrificed at 6 weeks after the first dose of cisplatin (n=6). To analyze the effects of samples, mice are given daily intraperitoneal injections for 7 days, starting from 4 weeks after first dose of cisplatin, and sacrificed at […] (n=6).
# [2] = system: TNF-α, IL-1β, IL-6 and TGF-β; experiment: Bleomycin-induced pulmonary fibrosis in mice: pro-inflammatory cytokines by ELISA; settings: extract 1.0 g/kg; BH, DH 50 mg/kg; after BLM challenge; p<0.001
# Procedure: Mice were divided into fifth groups with 5 animals per group according to body weight: control group, BLM group, BLM+DEX group (7.5 mg/kg), BLM+ACH dosage group (50 mg/kg), and BLM+ACM dosage group (25 mg/kg), BLM+ACH dosage group (50 mg/kg), and BLM+ACM dosage group (25 mg/kg) BLM+AH dosage group (50 mg/kg), and BLM+AM dosage group (25 mg/kg) BLM+BH dosage group (50 mg/kg), and BLM+BM dosage group (25 mg/kg) BLM+CH dosage group (50 mg/kg), and BLM+CM dosage group (25 mg/kg) BLM+DH dosage group (50 mg/kg), and BLM+DM dosage group (25 mg/kg) BLM+EH dosage group (50 mg/kg), and BLM+EM dosage group (25 mg/kg) BLM. Pulmonary fibrosis (PF) was established in mice via a single intratracheal administration of BLM at 7.5 mg/kg mg/kg body weight. Different doses of samples were intragastrically administered daily for 21 days after BLM injury, and DEX was used as the positive control. Control and model groups received an equal volume of vehicle (0.9% NaCl) using the same schedule and route of administration. […]
# The serum concentration of the pro-inflammatory cytokines (i.e. tumor necrosis factor-α (TNF-α), interleukin-6 (IL-6), and IL-1β) in serum were assessed with relevant enzyme-linked immunosorbent assay (ELISA) kits (Biosource International Inc., Sunnyvale, Calif., USA), based on the manufacturer's instructions.
# BALB/c mice = experiment: Con A (concanavalin A) induced acute hepatitis in BALB/c mice; settings: mean ± SEM
# Procedure: Male BALB/c mice (7-9 weeks old) were purchased from BioLASCO Taiwan Co., Ltd or National Laboratory Animal Center (NLAC, Taiwan). Animals are housed five per cage with food and water provided ad libitum throughout the experiments. Room temperature is maintained at 23±2° C. with an alternating 12 h light dark cycle. Animals are acclimatized for one week to minimize the effect of stress before the experiments. All experimental protocols involving animals and their care are approved by the Institutional Animal Care and Use Committee (IACUC) in ITRI (ITRI-IACUC-2018-041 and ITRI-IACUC-2018-050; accredited by AAALAC) and are carried out according to the regulations of the Council of Agriculture, Taiwan.
# Con A is dissolved in pyrogen free saline at a concentration of 3 mg/mL and intravenously injected at a dose of 15 mg/kg or 20 mg/kg of body weight to induce hepatitis. […] Blood and liver tissues are collected 24 h after Con A treatment (FIG. 11). Serum are stored at […] until analysis.
# To assess the level of hepatocellular injury after Con A treatment, serum GPT and GOT levels are measured by Fuji Dri-Chem slides (Fuji, Japan). The serum of the same group is pooled for cytokine assay. Cytokine levels are measured by ProcartaPlex™ immunoassays kit according to manufacturer's instructions. Data are presented as mean f SEM. T test is used to analyze the differences between drug and vehicle treated groups. The difference is regarded statistically significant when p value is less than 0.05.
# Liver tissues are fixed in 10% phosphate buffered formaldehyde, embedded in paraffin, and stained with hematoxylin and eosin (H&E) in order to confirm tissue lesions. Tissue lesions are examined microscopically by a veterinary pathologist at BioLASCO Taiwan Co., Ltd. The criteria of severity grading system for all microscopic lesions are graded from 0 to 4 as follows: 0=none; 1=individual cell necrosis; 2=≤30% lobular necrosis; 3=≤60% lobular necrosis; 4=>60% lobular necrosis.
# C57BL/6 mice [3] = experiment: Cisplatin-induced renal injury in mice: kidney histopathology (H&E); settings: extract at 1000 mg/kg; cisplatin-stimulated mice
# Excerpt: Kidney histopathology The anterior portion of the […] from each mouse is fixed in 10% formaldehyde phosphate buffer, embedded in paraffin, cut into 5 μm sections, and then treated with an hematoxylin and eosin (H&E) stain for histological examination under the light microscopy (Nikon, ECLIPSE, TS100, Tokyo, Japan). Images are captured with a digital camera (NIS-Elements D 2.30, SP4, Build 387) at an original magnification of 400×.
# as §1
# Renal fibrosis is induced via multiple injections of low-dose cisplatin. Intraperitoneal injections of cisplatin (5 mg/kg/injection; P4394, Sigma-Aldrich, St Louis, Mo.) are performed at 0, 1, and 3 weeks, for a total of 3 injections. Mice are sacrificed at 6 weeks after the first dose of cisplatin (n=6). […]
# ICR mice = experiment: Bleomycin-induced pulmonary fibrosis in mice: lung hydroxyproline content; settings: extract 1.0 g/kg; AH, BH, DH 50 mg/kg; p<0.001
# Procedure: Mice were divided into fifth groups with 5 animals per group according to body weight: control group, BLM group, BLM+DEX group (7.5 mg/kg), BLM+ACH dosage group (50 mg/kg), and BLM+ACM dosage group (25 mg/kg), BLM+ACH dosage group (50 mg/kg), and BLM+ACM dosage group (25 mg/kg) BLM+AH dosage group (50 mg/kg), and BLM+AM dosage group (25 mg/kg) BLM+BH dosage group (50 mg/kg), and BLM+BM dosage group (25 mg/kg) BLM+CH dosage group (50 mg/kg), and BLM+CM dosage group (25 mg/kg) BLM+DH dosage group (50 mg/kg), and BLM+DM dosage group (25 mg/kg) BLM+EH dosage group (50 mg/kg), and BLM+EM dosage group (25 mg/kg) BLM. Pulmonary fibrosis (PF) was established in mice via a single intratracheal administration of BLM at 7.5 mg/kg mg/kg body weight. Different doses of samples were intragastrically administered daily for 21 days after BLM injury, and DEX was used as the positive control. Control and model groups received an equal volume of vehicle (0.9% NaCl) using the same schedule and route of administration.
# The contents of hydroxyproline were analyzed in lung tissue following the instruction of hydroxyproline assay kit (Biosource International Inc., Sunnyvale, Calif., USA). The pulmonary tissues of mice were ground and homogenized with 1 ml of 6 mol/L […] solution, hydrolyzed at 95° C. for 5 hours, and the pH value was adjusted to 6.0-6.8. According to the instructions, the corresponding reagents were added to the reaction system and mixed thoroughly and then incubated for 15 minutes at 60° C. After cooling, the supernatants were collected after centrifuging at 3500 rpm for 10 minutes. The absorbance value of the supernatant from the samples was measured at 550 nm by a spectrophotometer and calculated for the contents of hydroxyproline on each group.
compound,measurement,setting,value
"C=C1C(=O)O[C@H]2/C=C(\C)CC3C=C(CC/C=C(\C)CC[C@H]12)C(=O)O3 (stereo partly shown) [AR100-DS1, Ovatodiolide]",renal protection: normalization of serum CRE and BUN,C57BL/6 mice [1],significant renal protection effect
same,"TNF-α, IL-1β, IL-6 and TGF-β production",[2],"improved TNF-α, IL-1β, IL-6 and TGF-β production"
same,serum GPT level,"BALB/c mice; 50 mg/kg oral, 24 h after 15 mg/kg Con A, vehicle 368±107, p<0.05",109±25 U/L
same,serum GOT level,"BALB/c mice; 50 mg/kg oral, 24 h after 15 mg/kg Con A, vehicle 410±56",261±45 U/L
same,liver necrosis histopathological score,"BALB/c mice; graded 0 to 4, 24 h after Con A, vehicle 1.4±0.2",0.2±0.2
same,necrosis and inflammatory infiltrating cells in the kidney tissue (H&E),C57BL/6 mice [3],significantly improved necrosis and inflammatory infiltrating cells in the kidney tissue
same,hydroxyproline (HP) content in lung tissue,ICR mice,reduced lung HP
